Holding throughout (assay type): physicochemical, human
Series [1] can be described thus: GC/MS of blood plasma sample: time from blood collection to centrifugation (Table A). To be noted: for Rate of increase or decrease: detection intensity relative to 1 at 15 minutes; for Rate of increase or decrease / Increase or decrease: blood collection to centrifugation; for Increase or decrease: detection intensity; for Rate of increase or decrease (second value, decrease) / Rate of increase or decrease (first value, increase): different from individual to individual, relative to 1 at 15 minutes, collection to centrifugation; for Rate of increase or decrease (second value, decrease): individuals with decrease; for Rate of increase or decrease (first value, increase): individuals with increase. Put shortly: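 EDTA blood from a healthy subject was cooled at 4° C, centrifuged at 4° C, 3000 rpm, 15 minutes, and plasma was frozen. After methoxymation and trimethylsilylation, samples ran on GC/MS (BPX5 column, 60-330° C gradient, electron ionization, MRM). Intensity is relative to 15 minutes from collection to centrifugation.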

Series [2] is described as follows: GC/MS of blood plasma sample: time from blood collection to cooling of blood (Table B). Further details: key to Rate of increase or decrease / Rate of increase or decrease (first value, increase): detection intensity relative to 1 at cooling time ≤1 min. The conditions noted are these: for Rate of increase or decrease: detection intensity relative to 1 at 1 minute or less, blood collection to cooling 5 minutes; for Increase or decrease: detection intensity, blood collection to cooling 5 minutes or more vs 1 minute or less. The protocol:
(§1) At room temperature, 5 mL of blood from a healthy subject was taken into a blood-collecting vessel containing EDTA, and the blood-collecting vessel was inverted for mixing, then cooled, and allowed to stand at 4° C. Here, in order to investigate how the detection intensity of molecules contained in the sample was affected in a case where the time to cooling was set to 5 minutes or more as compared to that in a case where the time to cooling was set to 1 minute or less, preparations were performed under both the former condition and the latter condition. After standing, the blood sample was subjected to centrifugation under a condition of 4° C., 3000 rpm, and 15 minutes. […] After centrifugation, the blood-collecting vessel was left to stand at room temperature for 30 minutes, and the blood plasma was isolated during this 30 minutes. The obtained blood plasma sample was frozen and stored. Here, in order to investigate how the detection intensity of molecules contained in the sample was affected in cases where freezing and thawing was performed 4 times, 6 times, and 10 times after freezing as compared to that in a case where freezing and thawing was performed 2 times after freezing, freezing and thawing was performed under the respective conditions of 2, 4, 6, and 10 times.
(§2) Frozen blood plasma samples and serum samples were subjected to GC/MS or LC/MS. In GC/MS, the blood plasma samples and serum samples were subjected to methoxymation and trimethylsilylation and then introduced to GC-MS.
(§3) GC/MS was conducted using GCMS·TQ8040 (Shimadzu Corporation) that was a GC·MS equipped with AOC·20i (Shimadzu Corporation) as an autosampler.
(§4) Column: BPX5 (inner diameter of 0.25 mm, length of 30 m, and film thickness of 0.25 μm) (SGE)
(§5) Column temperature: maintained at 60° C. for 2 minutes, then raised at 15° C./min, and maintained at 330° C. for 3 minutes.
(§6) Inlet temperature: 250° C.
(§7) Carrier gas control mode: constant linear velocity of 39.0 cm/sec
(§8) Sample introduction method: split (split ratio of 30:1) Injection volume: 1 μL
(§9) Ionization method: electron ionization
(§10) Ionization current: 60 μA
(§11) Interface temperature: 280° C.
(§12) Ion source temperature: 200° C.
(§13) Mode: multiple reaction monitoring (MRM)
Table B presents compounds of which the detection intensity increased or decreased by 30% or more in a case where the time from blood collection to cooling of blood, when a blood plasma sample was analyzed by GC/MS, was set to 5 minutes or more as compared to that in a case where the time was set to 1 minute or less. The rate of increase or decrease in Table B is the value of detection intensity relative to 1 that is the detection intensity in a case where the time from blood collection to cooling is set to 1 minute or less.

Series [3] in a line: GC/MS of blood plasma sample: number of times of freezing and thawing (Table C). The conditions noted are these: for Increase or decrease: detection intensity; for Rate of increase or decrease (second value, decrease) / Rate of increase or decrease (first value, increase): different from individual to individual, relative to 1 at 2 times; for Rate of increase or decrease (second value, decrease): individuals with decrease; for Rate of increase or decrease (first value, increase): individuals with increase; for Rate of increase or decrease: detection intensity relative to 1 at 2 times. Here is the method: as §1, §2, §3, §4, §5, §6, §7, §8, §9, §10, §11, §12, §13
The rate of increase or decrease in Table C is the value of detection intensity relative to 1 that is the detection intensity in a case where the number of times of freezing and thawing is set to 2 times.

Series [4] in a line: GC/MS of serum sample: time from blood collection to centrifugation (Table G). To be noted: blood collection to centrifugation; for Rate of increase or decrease: detection intensity relative to 1 at 15 minutes; for Increase or decrease: detection intensity. Put shortly:
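Blood was held for varying times before centrifugation (room temperature, 3500 rpm, 5 min); serum was frozen, then methoxymated and trimethylsilylated for GC/MS with electron ionization in MRM mode. Values are detection intensities relative to the 15-minute collection-to-centrifugation condition, set as 1.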

Series [5] is described as follows: GC/MS of serum sample: time from centrifugation to isolation (Table H). On the set-up: key to Rate of increase or decrease / Rate of increase or decrease (first value, increase): detection intensity relative to 1 at 30 min centrifugation-to-isolation. The conditions noted are these: for Increase or decrease: detection intensity. Put shortly: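 Blood was centrifuged at room temperature, 3500 rpm, 5 min, and the vessel left at room temperature for 30 min, 1 h or 6 h before serum isolation. Serum was methoxymated, trimethylsilylated and analysed by GC/MS with electron ionization in MRM mode; intensities expressed relative to the 30-min condition (=1).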

Series [6] is described as follows: GC/MS of serum sample: number of times of freezing and thawing (Table I). On the set-up: key to Rate of increase or decrease / Rate of increase or decrease (first value, increase): detection intensity relative to 2 freeze-thaw cycles = 1. The conditions noted are these: for Rate of increase or decrease: detection intensity relative to 1 at 2 times. Put shortly: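 Serum was isolated after centrifugation at room temperature (3500 rpm, 5 min), frozen, and put through 2, 4, 6 or 10 freeze–thaw cycles. Samples were methoxymated and trimethylsilylated, then run by electron-ionization GC/MS in MRM mode on a BPX5 column (60 to 330 °C). Detection intensity is given relative to the 2-cycle sample, set as 1.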

The mark [7] stands for this setting: freezing and thawing 6 times vs 2 times.
Where [8] appears, read: freezing and thawing 4 times vs 2 times.
[9] abbreviates: serum, GC/MS, freezing and thawing 4 times.
[10] abbreviates: detection intensity, serum, GC/MS, freezing and thawing 4 times vs 2 times.

SMILES strings stand for the structures.

In the case of `O=c1ccn([C@H]2C[C@H](O)[C@@H](CO)O2)c(=O)[nH]1` [2′-Deoxyuridine], the “Rate of increase or decrease” value is 1.43 in series [1] (after 12 hours) and 0.68 in series [2]. In addition, the Increase or decrease entry in series [1] (after 12 hours vs 15 minutes) is on record as “Increase”; in series [2], “Decrease”; in series [3] (setting [7]), “Different from individual”. Besides, the “Rate of increase or decrease (second value, decrease)” value in series [3] (freezing and thawing 6 times) was found to be 0.67. In series [3] (freezing and thawing 6 times), the “Rate of increase or decrease (first value, increase)” value is on record as 1.43.

For `O=P(O)(O)OCC(O)CO` (stereo not drawn) [Glycerol-3-phosphate], the Increase or decrease entry in series [1] (after 4 hours vs 15 minutes) is reported as “Different from individual”; in series [2], “Increase”; in series [3] (setting [7]) it was “Decrease”; in series [4] (after 4 hours vs 15 minutes) it was “Increase”. Further, the “Rate of increase or decrease (second value, decrease)” value in series [1] (after 4 hours) turned out to be 0.32. In series [1] (after 4 hours), the “Rate of increase or decrease (first value, increase)” value came out at 4.90. In addition, the “Rate of increase or decrease” value in series [3] (freezing and thawing 6 times) turned out to be 0.41; in series [4] (after 4 hours) it was 1.39.

For `NCCc1c[nH]cn1` [Histamine], the “Rate of increase or decrease” value in series [1] (after 4 hours) is 1.78; in series [2] it was 0.67; in series [3] (freezing and thawing 10 times) it was 1.63. The Increase or decrease result was “Increase” in series [1] (after 4 hours vs 15 minutes); “Decrease” in series [2]; “Increase” in series [3] (freezing and thawing 10 times vs 2 times).

On to `Oc1ccc(O)cc1` [Hydroquinone], for which the “Rate of increase or decrease” value in series [1] (after 4 hours) amounted to 17.48; in series [2] it was 0.66. Also, the values for the Increase or decrease result in series [1] (after 4 hours vs 15 minutes), in series [2] and in series [3] (setting [8]) were “Increase”, “Decrease” and “Different from individual”, respectively. Moreover, the “Rate of increase or decrease (second value, decrease)” value in series [3] (freezing and thawing 4 times) is recorded as 0.69. Further, the “Rate of increase or decrease (first value, increase)” value in series [3] (freezing and thawing 4 times) worked out at 3.54.

For `CS(=O)(=O)CC[C@H](N)C(=O)O` [Methionine sulfone], the “Rate of increase or decrease” value was 4.98 in series [1] (after 4 hours); 0.70 in series [2]; 1.77 in series [3] (freezing and thawing 4 times). Besides, the Increase or decrease result in series [1] (after 4 hours vs 15 minutes) was “Increase”; in series [2], “Decrease”; in series [3] (setting [8]) it was “Increase”.

For the molecule `CC(=O)NCCCC[C@H](N)C(=O)O` [N6-acetyllysine], the “Rate of increase or decrease” value in series [2] worked out at 0.61; in series [3] (freezing and thawing 6 times), 0.57; in series [4] (after 4 hours), 1.55; in series [6] (setting [9]), 0.67. In addition, the Increase or decrease result is “Decrease” in series [2]; “Decrease” in series [3] (setting [7]); “Increase” in series [4] (after 4 hours vs 15 minutes); “Different from individual” in series [5] (after 6 hours vs 30 minutes); “Decrease” in series [6] (setting [10]). Also, the “Rate of increase or decrease (second value, decrease)” value in series [5] (different from individual to individual, individuals with decrease, relative to 1 at 30 minutes, after 6 hours) was 0.58. Also, in series [5] (different from individual to individual, individuals with increase, relative to 1 at 30 minutes, after 6 hours), the “Rate of increase or decrease (first value, increase)” value is reported as 1.71.

As for `O=C(O)c1cccnc1C(=O)O` [Quinolinic acid], the “Rate of increase or decrease” value in series [1] (after 4 hours) is given as 2.24. Further, the values for the Increase or decrease entry in series [1] (after 4 hours vs 15 minutes), in series [2] and in series [3] (setting [8]) were “Increase”, “Different from individual” and “Different from individual”, respectively. Moreover, the “Rate of increase or decrease (second value, decrease)” value in series [2] (different from individual to individual, individuals with decrease, relative to 1 at 1 minute or less, collection to cooling 5 minutes) is 0.41; in series [3] (freezing and thawing 4 times) it was 0.68. For the same molecule, the “Rate of increase or decrease (first value, increase)” value is 1.67 in series [2] (different from individual to individual, individuals with increase, relative to 1 at 1 minute or less, collection to cooling 5 minutes); 1.70 in series [3] (freezing and thawing 4 times).

Consider `O=C[C@H](O)[C@H](O)[C@H](O)CO` [Ribose], for which the Increase or decrease result in series [2] is recorded as “Increase”; in series [3] (setting [7]), “Different from individual”; in series [4] (after 4 hours vs 15 minutes), “Decrease”; in series [5] (after 1 hour vs 30 minutes) it was “Increase”; in series [6] (setting [10]) it was “Increase”. The “Rate of increase or decrease (second value, decrease)” value in series [3] (freezing and thawing 6 times) is recorded as 0.70. For the same molecule, in series [3] (freezing and thawing 6 times), the “Rate of increase or decrease (first value, increase)” value stood at 1.39. The “Rate of increase or decrease” value in series [4] (after 4 hours) is listed as 0.41; in series [5] (detection intensity relative to 1 at 30 minutes, after 1 hour), 1.76; in series [6] (setting [9]) it was 1.68.

On to `O=C(CO)[C@H](O)[C@H](O)CO` [Ribulose], for which the Increase or decrease entry in series [1] (after 4 hours vs 15 minutes) was “Different from individual”; in series [2] it was “Increase”; in series [3] (setting [8]), “Increase”; in series [4] (after 8 hours vs 15 minutes) it was “Increase”; in series [6] (serum sample, GC/MS, detection intensity vs 2 times of freezing and thawing), “Decrease”. Also, in series [1] (after 4 hours), the “Rate of increase or decrease (second value, decrease)” value amounted to 0.66. The “Rate of increase or decrease (first value, increase)” value in series [1] (after 4 hours) is on record as 4.41. Further, the “Rate of increase or decrease” value in series [2] is 1.96; in series [3] (freezing and thawing 4 times) it was 1.38; in series [4] (after 8 hours) it was 1.72; in series [6] (10 times of freezing and thawing), 0.68. Besides, the “Number of times when compound is affected” value in series [6] (serum sample, GC/MS, detection intensity changed by 30% or more vs 2 times of freezing and thawing) amounted to 10 times.

For the origin of these results see US20220146526A1, “METHOD FOR EVALUATING SAMPLE, ANALYSIS METHOD, METHOD FOR DETECTING DEGRADED SAMPLE, MARKER FOR DETECTING DEGRADED BLOOD PLASMA SAMPLE, AND MARKER FOR DETECTING DEGRADED SERUM SAMPLE” (SHIMADZU CORPORATION, priority 2019, published 2022).
